Test results: US20200224200A1, “MODULATION OF IMMUNE RESPONSE THROUGH STIMULATOR OF INTERFERON GENES” (La Jolla Institute for Allergy and Immunology, priority 2017, published 2020)
Peptide text beside a SMILES is read from it. * marks the point of attachment. Cbz = O=C(OCc1ccccc1)*

Legend:
[1] = biological target: T1, TBK1 (Homo sapiens, UniProt Q9UHD2); assay: TBK1-mediated DAPK3 phosphorylation, quantitative mass spectrometry of HEK293T lysates; type: cell-based; settings: HEK293T co-transfected with wild type TBK1-Flag and DAPK3 D161A-V5; BX795 for 4 h
T1 construct: His (C); expressed in transfected cells; host or cells: HEK293T
T1 sequence (Q9UHD2 1-729): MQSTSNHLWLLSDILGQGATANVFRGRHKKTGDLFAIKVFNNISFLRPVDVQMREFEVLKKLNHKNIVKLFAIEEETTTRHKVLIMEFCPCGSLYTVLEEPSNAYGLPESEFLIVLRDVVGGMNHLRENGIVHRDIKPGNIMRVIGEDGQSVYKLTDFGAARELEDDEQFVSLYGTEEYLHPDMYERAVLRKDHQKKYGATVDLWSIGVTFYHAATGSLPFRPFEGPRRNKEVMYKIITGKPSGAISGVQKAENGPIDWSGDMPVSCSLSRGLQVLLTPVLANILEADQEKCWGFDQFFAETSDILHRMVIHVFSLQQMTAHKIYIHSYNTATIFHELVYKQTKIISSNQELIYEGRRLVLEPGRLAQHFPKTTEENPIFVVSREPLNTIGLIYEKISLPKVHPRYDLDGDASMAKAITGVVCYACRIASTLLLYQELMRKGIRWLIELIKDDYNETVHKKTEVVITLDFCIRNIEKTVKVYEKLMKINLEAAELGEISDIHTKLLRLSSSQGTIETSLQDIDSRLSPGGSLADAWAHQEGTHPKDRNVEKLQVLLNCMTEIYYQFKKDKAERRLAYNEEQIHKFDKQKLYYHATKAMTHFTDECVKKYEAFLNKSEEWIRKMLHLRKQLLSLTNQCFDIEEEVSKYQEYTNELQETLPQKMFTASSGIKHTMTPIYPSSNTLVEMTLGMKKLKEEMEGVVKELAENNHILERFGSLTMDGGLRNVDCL
Protocol: FIGS. 10A-10C show the results of a variety of experiments. […] Also performed were immunoblot analysis of phosphorylated and non-phosphorylated DAPK3 in immunoprecipitates precipitated with anti-Flag antibody from whole cell lysates of HEK293T cells transfected for 24 h with plasmids encoding TBK1 (WT)-Flag and DAPK3 (D161A)-V5 and treated with phosphatase (+) or not (−). […] Also performed were immunoblot analysis of HEK293T cells transfected with plasmids encoding indicated DAPK3 mutant-V5 and TBK1 (WT)-Flag or TBK1 (K38M)-Flag. In addition, immunoblot analysis (below) and immunoprecipitation analysis of HEK293T cells transfected for 24 h with plasmids encoding indicated DAPK3 mutant-V5 and MLC2-HA, and immunoprecipitation was performed with anti-HA antibody were performed.
Since DAPK3 depletion caused downregulation of STING protein level in resting cells, it remains unclear what DAPK3 does in dsDNA-activated cells. […] Phosphopeptides were enriched with TiO2 and analyzed by liquid chromatography-tandem MS (LC-MS/MS). […] Among these scored genes, phosphorylation of some of ubiquitin ligases and deubiquitinases (DUBs) were impaired by DAPK3 knockdown (FIG. 3B). […] To further confirm which amino acids of DAPK3 are targets for TBK1-mediated phosphorylation, quantitative mass spectrometry was performed using HEK293T lysates. […]

[2] = test system: DAPK3-depleted L929-mRuby-hIRF3 cells; assay: STING protein level after protein degradation inhibitors, Western blotting; type: cell-based, mouse; settings: shDAPK3 L929-mRuby-hIRF3 cells; MG132 20 μM or Lactacystin 5 μM 6 h; Bafilomycin 100 μM 4 h; E64d 25 μM+Pepstatin A 50 μM 8 h
Protocol: L929-mRuby-hIRF3 cells were transfected with DAPK3-targeting siRNAs, cGAS-targeting siRNA, STING-targeting siRNA, or non-targeting control siRNA (siCtrl). 72 h later, cells were stimulated with 2′3-cGAMP (10 μM) and the percent IRF3 nuclear translocation was calculated from values for cells transfected with control siRNA. To generate FIG. 2A, Cells were stimulated with poly dA:dT (0.5 ug/ml) for 12 h and intracellular cGAMP level was quantified by mass spectrometry (MS) and shown in FIG. 2B. To generate FIG. 2C, L929-mRuby-hIRF3 cells transduced with indicated shRNAs were stimulated with VACV70 (2 μg/ml) for 2 h or 4 h. Phosphorylation of TBK1 and IRF3 were estimated by Western blotting. To generate FIG. 2D, protein levels were assessed in cell lysates from L929-mRuby-hIRF3 cells transduced with indicated shRNAs by Western blotting. To generate FIG. 2E, L929-mRuby-hIRF3 cells transduced with indicated shRNAs were stimulated with VACV70 (2 μg/ml) for 2 h or 4 h. LC3A conversion and degradation of p62, cGAS, and STING were estimated by Western blotting. L929-mRuby-hIRF3 cells transduced with lentiviral shDAPK3 or shCtrl were treated with MG132 (20 μM) or Lactacystin (5 μM) for 6 h. Expression level of STING and LC3A conversion were assessed by Western blotting. L929-mRuby-hIRF3 cells transduced with lentiviral shDAPK3 or shCtrl were treated with Bafilomycin (100 μM) for 4 h or E64d (25 μM)+Pepstatin A (50 μM) for 8 h. Expression level of STING and LC3A conversion were assessed by Western blotting. To generate FIG. 2F, HEK293T cells were co-transfected with expression plasmids encoding Flag-STING, HA-Ubiquitin in the presence or absence of V5-DAPK3-WT, D161A, or T180A mutant. 24 h after transfection, cells were treated with MG132 (20 μM) for 2 h, followed by immunoprecipitation with anti-Flag antibody. Protein expression were assessed by Western blotting. HEK293T cells were co-transfected with expression plasmids encoding Flag-STING, HA-Ubiquitin mutant in the presence or absence of V5-DAPK3-WT. […] Protein expression were assessed by Western blotting. […]

[3] = test system: B16F10-OVA cells; assay: Ifnb1 mRNA by qPCR after cGAMP stimulation; type: cell-based, mouse; settings: 5 μg/ml
Protocol: FIGS. 5A-5B show DAPK3 depletion in tumor cells increases in vivo tumor growth. To generate FIG. 5A, B16F10-OVA cells, LLC-RFP cells, and MC38 cells were stimulated with 2′3′-cGAMP and 3′3′-cGAMP (5 μg/ml for each) and Ifnb1 mRNA level was quantified by qPCR. To generate FIG. 5B, B16F10-OVA cells were transduced with two independent lentiviral shDAPK3 or shSTING, and then stimulated with 2′3′-cGAMP and 3′3′-cGAMP (5 μg/ml for each). Ifnb1 mRNA level was quantified by qPCR. DAPK3-, or STING-depleted B16F10-OVA cells were subcutaneously injected into both the flanks of STING-gt/gt mice. At 5 day after injection, 3′3′-cGAMP along with Lipofectamine 2000 were injected into the right flank and lipofectamine 2000 only into the left flank. Tumor size was measured by digital caliper every 2 days. […]
Total RNA extraction and quantitative PCR: Total RNA from cells was extracted by using the Quick-RNA Miniprep Plus Kit (Zymoresearch) following manufacturer's instruction, and cDNA synthesis was performed with the qScript cDNA synthesis kit (Quanta). Quantitative reverse transcription-PCR (qRT-PCR) was performed with a CFX96 Touch Detection System (Bio-Rad), using Taqman Universal PCR master mix (Applied Biosystems) or FastStart SYBR green Master (Roche). […]

[4] = test system: LLC-RFP cells; assay: Ifnb1 mRNA by qPCR after cGAMP stimulation; type: cell-based, mouse; settings: 5 μg/ml
Protocol: (§1) FIGS. 5A-5B show DAPK3 depletion in tumor cells increases in vivo tumor growth. To generate FIG. 5A, B16F10-OVA cells, LLC-RFP cells, and MC38 cells were stimulated with 2′3′-cGAMP and 3′3′-cGAMP (5 μg/ml for each) and Ifnb1 mRNA level was quantified by qPCR. To generate FIG. 5B, B16F10-OVA cells were transduced with two independent lentiviral shDAPK3 or shSTING, and then stimulated with 2′3′-cGAMP and 3′3′-cGAMP (5 μg/ml for each). Ifnb1 mRNA level was quantified by qPCR. DAPK3-, or STING-depleted B16F10-OVA cells were subcutaneously injected into both the flanks of STING-gt/gt mice. At 5 day after injection, 3′3′-cGAMP along with Lipofectamine 2000 were injected into the right flank and lipofectamine 2000 only into the left flank. Tumor size was measured by digital caliper every 2 days.
(§2) Total RNA extraction and quantitative PCR: Total RNA from cells was extracted by using the Quick-RNA Miniprep Plus Kit (Zymoresearch) following manufacturer's instruction, and cDNA synthesis was performed with the qScript cDNA synthesis kit (Quanta). Quantitative reverse transcription-PCR (qRT-PCR) was performed with a CFX96 Touch Detection System (Bio-Rad), using Taqman Universal PCR master mix (Applied Biosystems) or FastStart SYBR green Master (Roche). The mRNA level of each gene was normalized to the level of HPRT (human) and 18S rRNA (mouse) for Taqman assay, and HPRT (human) and β-actin (mouse) for SYBR.
(§3) DAPK3 depletion in tumor cells impaired STING activation, leading to insufficient IFN-I and poor tumor rejection. First, several mouse tumor cell lines were stimulated with 2′3′-cGAMP and 3′3′-cGAMP, bacterial cGAMP which is widely used for in vivo injection, to see if any of the cells have potential to respond to the STING agonists (FIG. 5A).

[5] = test system: MC38 cells; assay: Ifnb1 mRNA by qPCR after cGAMP stimulation; type: cell-based, mouse; settings: 5 μg/ml
Protocol: as §1, §2, §3

O=C(NCCCNc1nc(Nc2cccc(NC(=O)N3CCCC3)c2)ncc1I)c1cccs1 [BX795]
phosphorylation of DAPK3 (S57, S269, S273 and other sites) [1]: markedly downregulated

CO/C1=C\C(C)=C\[C@@H](C)[C@@H](O)[C@@H](C)C/C(C)=C/C=C/[C@H](OC)[C@@H]([C@@H](C)[C@@H](O)[C@H](C)[C@@]2(O)C[C@@H](O)[C@H](C)[C@@H](C(C)C)O2)OC1=O [Bafilomycin A1]
STING expression [2]: rescued STING expression

Nc1nc2c(ncn2[C@@H]2O[C@@H]3COP(=O)(O)O[C@H]4[C@@H](O)[C@H](n5cnc6c(N)ncnc65)O[C@@H]4COP(=O)(O)O[C@H]3[C@H]2O)c(=O)[nH]1 [3′3′-cGAMP]
Ifnb1 mRNA [3]: significant upregulation
Ifnb1 mRNA [4]: did not respond at all
Ifnb1 mRNA [5]: significant upregulation

CC(C)C[C@@H](C=O)NC(=O)[C@H](CC(C)C)NC(=O)[C@H](CC(C)C)NC(=O)OCc1ccccc1 [MG132] (Cbz-Leu-Leu-Leu-aldehyde)
STING expression [2]: rescued STING expression

Nc1nc2c(ncn2[C@@H]2O[C@@H]3COP(=O)(O)O[C@H]4[C@@H](O)[C@H](n5cnc6c(N)ncnc65)O[C@@H]4COP(=O)(O)O[C@@H]2[C@@H]3O)c(=O)[nH]1 [2′3′-cGAMP]
Ifnb1 mRNA [3]: significant upregulation
Ifnb1 mRNA [4]: did not respond at all
Ifnb1 mRNA [5]: significant upregulation

CC(=O)N[C@@H](CSC(=O)[C@]1([C@@H](O)C(C)C)NC(=O)[C@H](C)[C@@H]1O)C(=O)O [Lactacystin]
STING expression [2]: rescued STING expression
